# In patent EP0433759A1, “4-Substituted alkyl carbapenem antibiotics” (Bristol-Myers Squibb Company, priority 1989, dated 1991):
# Where a name gives a salt, the structure may show the parent alone. Read-outs that look alike come from different tables or passages of the source.
# Tests used:
# Escherichia coli, A15119 = experiment: In vitro antibacterial activity (MIC), serial 2-fold dilution; assay type: cell-based; settings: read-out: Antibacterial Activity MIC E. coli
# Protocol: (§1) In vitro antibacterial activity was determined by serial 2-fold dilution of the compound in Mueller-Hinton agar and inoculation of the agar surface or broth with an appropriately diluted 18-24 h broth culture.
# [1] = test system: Streptococcus pneumoniae, A9585; experiment: as above; assay type: cell-based; settings: read-out: Antibacterial Activity MIC S. pn.
# Protocol: as §1
# [2] = test system: Pseudomonas aeruginosa, A9843; experiment: as above; assay type: cell-based; settings: read-out: Antibacterial Activity MIC P. aer.
# Protocol: as §1
# [3] = Chemical stability in aqueous solution (half-life); assay type: physicochemical; settings: 37°C, 10^-4 M, pH 7.4, aqueous solution; read-out: Half-life (T 1/2) (converted)
# Protocol: These values were determined by the method of Woodward et al, J. Am. Chem. Soc., 102, 2042 (1980)
# [4] = Escherichia coli A15119, Mueller-Hinton, 37°C, 17 h
# [5] = Streptococcus pneumoniae A9585, Mueller-Hinton, 37°C, 17 h
# [6] = Pseudomonas aeruginosa A9843, Mueller-Hinton, 37°C, 17 h
Structure (SMILES),"MIC (Escherichia coli, A15119; [4]) [µg/mL]","MIC [1, 5] [µg/mL]","MIC [2, 6] [µg/mL]",half-life at 100 µM [3] [h],"MIC (Escherichia coli, A15119; Escherichia coli, A15119, 17 h) [µg/mL]","MIC ([1]; Streptococcus pneumoniae, A9585, 17 h) [µg/mL]","MIC ([2]; Pseudomonas aeruginosa, A9843, 17 h) [µg/mL]"
"C[C@H](N)C(=O)N[C@@H](C)C(=O)NCC[C@H]1C(SCCC#N)=C(C(=O)O)N2C(=O)[C@H]([C@@H](C)O)[C@@H]12 [Example 146, (4R,5S,6S)-6-[(1'R)-1'-Hydroxyethyl]-3-[(2-cyanoethyl)-thio]-4-[2""-(L-alanyl-L-alanyl)-aminoethyl]-7-oxo-1-azabicyclo-[3.2.0]hept-2-ene-2-carboxylic acid]",0.125,0.25,128,,,,
"C[C@@H](O)[C@H]1C(=O)N2C(C(=O)O)=C(SCCN3CCCC3)[C@H](CCCN)[C@H]12 [Example 120, (4R,5S,6S)-4-(3""-Aminopropyl)-6-[(1'R)-1'-hydroxyethyl]-3-[2-(1-pyrrolidinyl)ethylthio]-7-oxo-1-azabicyclo-[3.2.0]-hept-2-ene-2-carboxylic acid, acetic acid salt]",0.13,0.03,0.25,23,,,
"C[C@@H](O)[C@H]1C(=O)N2C(C(=O)O)=C(SCCN3CCCC3)[C@H](CCCNC(=N)N)[C@H]12 [Example 127, (4R,5S,6S)-4-(3""-Guanidinopropyl)-6-[(1'R)-1'-hydroxyethyl]3-([2-(1-pyrrolidinyl)ethyllthio)-7-oxo-1-azabicyclo[3.2.0]-hept-2-ene-2-carboxylic acid, acetic acid salt]",0.13,0.06,1,31,,,
C[C@@H](O)[C@H]1C(=O)N2C(C(=O)O)=C(SCc3ccncc3)[C@H](CCCN)[C@H]12 [Example 44],0.03,0.03,8,89,,,
"C[C@@H](O)[C@H]1C(=O)N2C(C(=O)O)=C(SCCN)[C@H](CCCN)[C@H]12 [Example 117, (4R,5S,6S)-4-(3""-Aminopropyl)-3-[(2-aminoethyl)thio]-6-[(1'R)-1'-hydroxyethyl]-7-oxo-1-azabicyclo[3.2.0]hept-2-ene-2-carboxylic acid, acetic acid_salt]",0.13,0.13,0.25,33,,,
"C[C@@H](O)[C@H]1C(=O)N2C(C(=O)O)=C(SCCCC#N)[C@H](CCN)[C@H]12 [Example 47, (4R,5S,6S)-4-(2""-Aminoethyl)-3-[(3-cyanopropyl)thio]-6-[(1'R)-l'-hydroxyethyl]-7-oxo-1-azabicyclo[3.2.0]hept-2-ene-2-carboxylic acid]",0.03,0.5,1,2.5,,,
"CNCCC[C@H]1C(SCCC#N)=C(C(=O)O)N2C(=O)[C@H]([C@@H](C)O)[C@@H]12 [Example 154, (4R,5S,6S)-3-[(2-Cyanoethyl]thio]-6-[(1'R]-1'-hydroxyethyl]-4-(3""-N-methylaminopropyl)-7-oxo-1-azabicyclo[3.2.0]hept-2-ene-2-carboxylic acid]",0.25,0.5,1,79,,,
"C[C@H](N)C(=O)NCC[C@H]1C(SCCC#N)=C(C(=O)O)N2C(=O)[C@H]([C@@H](C)O)[C@@H]12 [Example 145, (4R,5S,6S)-6-[(\1'R)-1'-Hydroxyethyl]-3-[(2-cyanoethyl)-thio]-4-[2""-(L-alanyl)-aminoethyl]-7-oxo-1-azabicyclo-[3.2.0]hept-2-ene-2-carboxylic acid]",0.125,0.125,8,,,,
"C[C@@H](O)[C@H]1C(=O)N2C(C(=O)O)=C(SCc3ccccn3)[C@H](CCN)[C@H]12 [Example 3, (4R,5S,6S)-4-(2""-Aminoethyl)-6-[(1'R)-1'-hydroxyethyl]-3-[(pyridin-2-yl)methylthio]-7-oxo-1-azabicyclo-[3.2.0]-hept-2-ene-2-carboxylic acid]",0.016,0.13,2,3.2,,,
"C[C@@H](O)[C@H]1C(=O)N2C(C(=O)O)=C(SCCN=CN)C[C@H]12 [Imipenem, imipenem, reference compound]",,,,,0.03,0.002,2
"C[C@@H](O)[C@H]1C(=O)N2C(C(=O)O)=C(SCCC#N)[C@H](CCN(C)CCC#N)[C@H]12 [Example 124, (4R,5S,6S)-3-[(2-Cyanoethyl)thio]-4-[2""-[N,N-(2-cyanoethyl)methylamino]ethy!]-6-[(1'R)-1'-hydroxyethyl]-7-oxo-1-azabicyclo[3.2.0]hept-2-ene-2-carboxylic acid]",0.03,0.016,2,21,,,
"C[C@@H](O)[C@H]1C(=O)N2C(C(=O)O)=C(SCCC#N)[C@H](CCN3CCOCC3)[C@H]12 [Example 49, (4R,5S,6S)-3-[(2-Cyanoethyl)thio]-6-[(1'R)-1'-hydroxyethyl]--4-[2""-(N-morpholino)ethyl]-7-oxo-1-azabicyclo-[3.2.0]hept-2-ene-2-carboxylic acid]",0.03,0.008,63,33.5,,,

# More lines, in order of falling MIC (Escherichia coli, A15119; [4]), values ahead:
"MIC (Escherichia coli, A15119; [4]) [µg/mL]","MIC [1, 5] [µg/mL]","MIC [2, 6] [µg/mL]",half-life at 100 µM [3] [h],Structure (SMILES),"MIC (Escherichia coli, A15119; Escherichia coli, A15119, 17 h) [µg/mL]","MIC ([1]; Streptococcus pneumoniae, A9585, 17 h) [µg/mL]","MIC ([2]; Pseudomonas aeruginosa, A9843, 17 h) [µg/mL]"
0.016,0.008,1,18,"C[C@@H](O)[C@H]1C(=O)N2C(C(=O)O)=C(SCCC#N)[C@H](CCN3CCCC3)[C@H]12 [Example 63, (4R,5S,6S)-3-[(2-cyanoethyl)thio]-6-[(1'R)-1'-hydroxyethyl]-4-[2""-(1-pyrrolidinyl)-ethyl]-7-oxo-1-azabicyclo[3.2.0]hept-2-ene-2-carboxylic acid]",,,
0.015,0.03,0.06,37,"C[C@@H](O)[C@H]1C(=O)N2C(C(=O)O)=C(SCCNC(=N)N)[C@H](CCNC(=N)N)[C@H]12 [Example 135, (4R,5S,6S)-4-(2""-Guanidinoethyl)-3-[(2-guanidinoethyl)-thio]-6-[(1'R)-1'-hydroxyethyl]-7-oxo-1-azabicyclo-[3.2.0]hept-2-ene-2-carboxylic acid, acetic acid salt]",,,
0.008,0.25,0.5,70,"C[C@@H](O)[C@H]1C(=O)N2C(C(=O)O)=C(SCCC#N)[C@H](CCCN)[C@H]12 [Example 41, (4R-5S,6S)-4-(3""-Aminopropyl)-3-[(2-cyanoethy!)thio]-6-[(1'R)-1'-hydroxyethyl]-7-oxo-1-azabicyclo[3.2.0]hept-2-ene-2-carboxylic acid]",,,
0.008,0.06,1,32.5,"C[C@@H](O)[C@H]1C(=O)N2C(C(=O)O)=C(SCc3csnn3)[C@H](CCNC(=N)N)[C@H]12 [Example 40, (4R,5S.6S)-4-(2""-Guanidinoethyl)-6-[(1'R)-1'-hydroxyethyl]-3-[(1,2.3-thiadiazol-4-yl)methyithio]-7-oxo-1-azabicyclo-[3.2.0]hept-2-ene-2-carboxylic acid]",,,
0.008,0.06,8,88,"C[C@@H](O)[C@H]1C(=O)N2C(C(=O)O)=C(SCc3cn(C)nn3)[C@H](CCCNC=N)[C@H]12 [Example 94, (4R.5S,6S)-4-[3""-(N-Formimidoyi)aminopropyi]-6-[(1'R)-1'-hydroxyethyl]-3-[(1-methyl-1,2,3-triazol-4-yl)-methylthio]-7-oxo-1-azabicyclo[3.2.0]hept-ene-2-carboxylic acid]",,,
0.008,0.13,0.25,3.8,"C[C@@H](O)[C@H]1C(=O)N2C(C(=O)O)=C(SCCC#N)[C@H](CCN)[C@H]12 [Example 36, (4R,5S,6S)-4-(2""-Aminoethyl)-3-[(2-cyanoethyl)thio]-6-[(1'R)-1'-hydroxyethyl]-7-oxo-1-azabicyclo[3.2.0]hept-2-ene-2-carboxylic acid]",,,
0.008,0.03,0.25,37,"C[C@@H](O)[C@H]1C(=O)N2C(C(=O)O)=C(SCCC#N)[C@H](CCNC(=N)N)[C@H]12 [Example 73, (4R,5S,6S)-3-[(2-Cyanoethyl)thio]-4-(2""-guanidinoethyl)-6-[(1'R)-1'-hydroxyethyl]-7-oxo-1-azabicyclo[3.2.0]-hept-2-ene-2-carboxylic acid]",,,
0.008,0.016,2,47,"C[C@@H](O)[C@H]1C(=O)N2C(C(=O)O)=C(SCCC#N)[C@H](CCN3CCN(C)CC3)[C@H]12 [Example 126, (4R,5S,6S)-3-[(2-Cyanoethyl)thio]-6-[(1'R)-1'-hydroxyethyl]-4-[2""(4-methylpiperazine-1-yl)ethyl]-7-oxo-1-azabicyclo[3.2.0]hept-2-ene-2-carboxylic acid]",,,
0.004,0.13,1,136,C[C@@H](O)[C@H]1C(=O)N2C(C(=O)O)=C(SCCC#N)[C@H](CCCCCN)[C@H]12 [Example 121],,,
0.004,0.06,1,117,"C[C@@H](O)[C@H]1C(=O)N2C(C(=O)O)=C(SCCC#N)[C@H](CCCCNC=N)[C@H]12 [Example 19, (4R,5S,6S)-3-[(2-Cyanoethyl)thio]-4-[4""-(N-formimidoyl)-amino-butyl]-6-[(1'R)-1'-hydroxyethyl]-7-oxo-1 - azabicyclo-[3.2.0]hept-2-ene-2-carboxylic acid]",,,
